Data published in ChEMBL document CHEMBL1151122, “Diterpenoids from the roots of Salvia hypargeia” (1988).
Values after ≈ are worked out from the molar mass of the structure shown. Active and inactive are the calls of the source. No cut-off for these calls is given here.

Columns and labels:
[1] = test system: Staphylococcus aureus; experiment: Antibacterial activity against Staphylococcus aureus ATCC 6538; format: functional, organism-based
[2] = test system: Staphylococcus epidermidis; experiment: Antibacterial activity against Staphylococcus epidermidis ATCC 12228; format: functional, organism-based
[3] = test system: Pseudomonas aeruginosa; experiment: Antibacterial activity against Pseudomonas aeruginosa ATCC 1539; format: functional, organism-based
[4] = test system: Bacillus subtilis; experiment: Antibacterial activity against Bacillus subtilis ATCC 6633; format: functional, organism-based
[5] = test system: Klebsiella pneumoniae; experiment: Antibacterial activity against Klebsiella pneumoniae UC 57; format: functional, organism-based
[6] = test system: Staphylococcus aureus; experiment: Antibacterial activity against Staphylococcus aureus ATCC 6538 by disk diffusion method; format: functional
[7] = test system: Staphylococcus epidermidis; experiment: Antibacterial activity against Staphylococcus epidermidis ATCC 12228 by disk diffusion method; format: functional
[8] = test system: Pseudomonas aeruginosa; experiment: Antibacterial activity against Pseudomonas aeruginosa ATCC 1539 by disk diffusion method; format: functional
[9] = test system: Bacillus subtilis; experiment: Antibacterial activity against Bacillus subtilis ATCC 6633 by disk diffusion method; format: functional
[10] = test system: Klebsiella pneumoniae; experiment: Antibacterial activity against Klebsiella pneumoniae UC 57 by disk diffusion method; format: functional
[11] = test system: Staphylococcus aureus; experiment: Antibacterial activity against Staphylococcus aureus ATCC 6538 by tube dilution method; format: functional
[12] = test system: Klebsiella pneumoniae; experiment: Antibacterial activity against Klebsiella pneumoniae UC 57 by tube dilution method; format: functional
[13] = test system: Bacillus subtilis; experiment: Antibacterial activity against Bacillus subtilis ATCC 6633 by tube dilution method; format: functional
[14] = test system: Staphylococcus epidermidis; experiment: Antibacterial activity against Staphylococcus epidermidis ATCC 12228 by tube dilution method; format: functional
[15] = test system: Pseudomonas aeruginosa; experiment: Antibacterial activity against Pseudomonas aeruginosa ATCC 1539 by tube dilution method; format: functional
[16] = test system: Mycobacterium tuberculosis; experiment: Antitubercular activity against Mycobacterium tuberculosis H37Rv at 250 ug/ml; format: functional, organism-based

| SMILES | Activity [1] | Activity [2] | Activity [3] | Activity [4] | Activity [5] | inhibition zone (IZ) [6] [mm] | inhibition zone (IZ) [7] [mm] | inhibition zone (IZ) [8] [mm] | inhibition zone (IZ) [9] [mm] | inhibition zone (IZ) [10] [mm] | MIC [11] [µg/mL] | MIC [12] [µg/mL] | MIC [13] [µg/mL] | MIC [14] [µg/mL] | MIC [15] [µg/mL] | Activity [16] |
| --- | --- | --- | --- | --- | --- | --- | --- | --- | --- | --- | --- | --- | --- | --- | --- | --- |
| CC(C)c1ccc2c(c1O)C[C@@H](O)[C@H]1C(C)(C)CCC(=O)[C@]21C | inactive | inactive | inactive | inactive | inactive | – | – | – | – | – | – | – | – | – | – | – |
| CC(C)c1cc2c(cc1O)[C@@]1(C)C(=O)CCC(C)(C)[C@@H]1[C@H](O)C2=O [HYPARGENIN A] | – | – | – | – | – | >7 | >7 | >7 | >7 | >7 | 15.6 (≈ 47.2 µM) | 15.6 (≈ 47.2 µM) | – | – | – | – |
| CC(C)(O)c1cc2c(cc1O)[C@@]1(C)CCCC(C)(C)[C@@H]1CC2=O [HYPARGENIN B] | – | – | – | – | – | >7 | >7 | >7 | >7 | >7 | 125 (≈ 395 µM) | 125 (≈ 395 µM) | – | – | – | – |
| CC(C)c1cc2c(cc1O)[C@@]1(C)CCCC(C)(C)[C@@H]1C(=O)C2=O [HYPARGENIN C] | – | – | – | – | – | >7 | >7 | >7 | >7 | >7 | 125 (≈ 398 µM) | – | 15.6 (≈ 49.6 µM) | – | – | – |
| CC(C)c1cc2c(cc1O)[C@@]1(C)CCC(=O)C(C)(C)[C@@H]1C=C2 [HYPARGENIN D] | – | – | – | – | – | >7 | >7 | >7 | >7 | >7 | – | – | 62.5 (≈ 209 µM) | – | – | – |
| CC(C)C1=C(O)C(=O)C2=C(C=CC3(O)C(C)(C)CCC[C@]23C)C1=O (stereo partly specified) [HYPARGENIN F] | – | – | – | – | – | >7 | >7 | >7 | >7 | >7 | 125 (≈ 378 µM) | – | – | 62.5 (≈ 189 µM) | 125 (≈ 378 µM) | Active |
